Experimental data as given in US10858307B2, “Compositions and methods for treating liver cancer” (Golden Biotechnology Corporation, priority 2016, dated 2020).
≈ marks a conversion by molar mass, not a printed value.

Tests used:
[1] = system: Human hepatoma cell lines (HepG2); test: MTT cell viability assay; format: cell-based; details: for IC50: Homo sapiens, HepG2 cells, 48 h exposure; for inhibition against liver cancer cells compared to Compound S: versus Compound S
Excerpt: The MTT (3-(4, 5-dimethylthiazol-2-yl)-2,5-diphenyl tetrazolium bromide) cell viability assay is a colorimetric assay system, which measures the reduction of a tetrazolium component (MTT) into an insoluble blue/purple colored formazan product by succinate tetrazolium reductase in mitochondria of viable cells. The absorbance of the complex is read spectrophotometrically and is directly proportional to the number of live or viable cells. Formazan formation can therefore be used to assess and determine the survival rate of cells.
Human hepatoma cell lines (HepG2) were obtained from American Type Culture Collection (Rockville, Md., USA) and cultured in Minimum Essential Medium Alpha (Invitrogen/Gibco BRL, Grand Island, N.Y., USA) at 37° C. in 5% CO2 in culture media supplemented with 10% fetal bovine serum (FBS) (Invitrogen/Gibco BRL) and 100 U/ml streptomycin and penicillin (Invitrogen/Gibco BRL).
100 μL of HepG2 cells (1×10^4 cells per well) were seeded in 96 well plates and pre-incubated. After 24 h, the cells were exposed to various concentrations of Compounds 1-11, and the known compound 4-hydroxy-2,3-dimethoxy-6-methyl-5-(3,7,11-trimethyldodeca-2,6,10-trienyl)cyclohex-2-enone (Compound S) in a volume of 200 μL for 48 h. 20 μL of MTT reagent (5 mg/mL) was added to each well and then incubated in 5% CO2 at 37° C. for 4 h. The media was replaced with 200 μL of DMSO to dissolve the MTT tetrazolium crystal. Absorbance was measured at 570 nm using a microplate reader.

Human HCC Mahlavu cells = test: Efficacy test on liver cancer xenograft model; format: in vivo, nude mice
Protocol: […] nude mice (National Laboratory Animal Center) of four to six weeks old were used and maintained in laminar flow cabinets under pathogen-free condition. Human HCC Mahlavu cells (1×10^6 cells) carrying luciferase gene were re-suspended in 20 μL of PBS containing 50% matrigel (BD Biosciences, MA) and injected into the left lateral liver lobe of athymic nude mice (National Laboratory Animal Center) with 27-gauge needle by sterile techniques (Lu et al., 2007). For bioluminescence imaging, the animals were injected with the luciferase substrate D-luciferin at a dose of 150 mg/kg in 0.2 mL sterile isotonic saline.
Tumor growth and metastatic status was monitored using the Xenogen […] (IVIS) imaging system every two weeks. All images were obtained after intraperitoneal injection of luciferin (100 mg/kg body weight; Synchem, Elk Grove Village, Ill., United States). […] Image analysis and bioluminescence quantification were performed using Living Image software (Caliper Life Sciences, Hopkinton, Mass., United States). […] The body weight was measured twice weekly.
The tumor-bearing mice were treated with vehicle (olive oil) or Compound 1 at 120 mg/kg by oral gavage twice per day and 5 days per week for 4 weeks. The tumor volume was measured twice weekly. ***P<0.005 compared to vehicle control. […]

SMILES	IC50 [1]	inhibition against liver cancer cells compared to Compound S [1]	tumor size (Human HCC Mahlavu cells; 120 mg/kg oral gavage twice per day, 5 days per week for 4 weeks, P<0.005 compared to vehicle control)	decrease of tumor mass compared with control (Human HCC Mahlavu cells; 120 mg/kg oral gavage, at the end of week 12)
COC1=C(NCc2cccs2)[C@@H](O)[C@@H](C/C=C(\C)CC/C=C(\C)CCC=C(C)C)[C@H](C)C1=O [Compound 10]	0.91 µg/mL (≈ 1.93 µM)	much better unexpected inhibition	–	–
COC1=C(N(C)C)[C@@H](O)[C@@H](C/C=C(\C)CC/C=C(\C)CCC=C(C)C)[C@H](C)C1=O [Compound 4]	0.18 µg/mL (≈ 0.446 µM)	much better unexpected inhibition	–	–
COC1=C(NCCCN)[C@@H](O)[C@@H](C/C=C(\C)CC/C=C(\C)CCC=C(C)C)[C@H](C)C1=O [Compound 5]	0.87 µg/mL (≈ 2.01 µM)	much better unexpected inhibition	–	–
COC1=C(NCCc2c[nH]c3ccccc23)[C@@H](O)[C@@H](C/C=C(\C)CC/C=C(\C)CCC=C(C)C)[C@H](C)C1=O [Compound 11]	2.29 µg/mL (≈ 4.41 µM)	–	–	–
COC1=C(N)[C@@H](O)[C@@H](C/C=C(\C)CC/C=C(\C)CCC=C(C)C)[C@H](C)C1=O [Compound 1, (4S,5S,6S)-3-amino-4-hydroxy-2-methoxy-6-methyl-5-((2E,6E)-3,7,11-trimethyldodeca-2,6,10-trien-1-yl)cyclohex-2-enone]	0.13 µg/mL (≈ 0.346 µM)	much better unexpected inhibition	decrease of the tumor size	at least 4 folds
COC1=C(NCCO)[C@@H](O)[C@@H](C/C=C(\C)CC/C=C(\C)CCC=C(C)C)[C@H](C)C1=O [Compound 7]	1.95 µg/mL (≈ 4.65 µM)	–	–	–
COC1=C(OC)C(O)C(CC=C(C)CCC=C(C)CCC=C(C)C)C(C)C1=O (stereo not shown) [Compound S, 4-hydroxy-2,3-dimethoxy-6-methyl-5-(3,7,11-trimethyldodeca-2,6,10-trienyl)cyclohex-2-enone, reference compound]	2.4 µg/mL (≈ 6.14 µM)	–	–	–
